In ChEMBL document CHEMBL6074659, “Development of an Intravenously Stable Disulfide-Rich Peptide for the Treatment of Chemotherapy-Induced Neuropathic Pain” (J Med Chem, 2024):
Starred links: 1 amine or outer side, 2 acyl side, 3 side chain; linkers in the order of their positions; H or OH if unused. Positions of bridges follow the written chain, without caps; N, C: chain ends. Non-standard residues stand in square brackets, D forms with d. Residues, ends and D or L forms follow the SMILES beside them. Triazole bridges read from a SMILES are 1,4-linked. Aha = [N-]=[N+]=NCC[C@H](N)C(=O)O; Pra = C#CC[C@H](N)C(=O)O; Dap = NC[C@H](N)C(=O)O; CH2 = C([*:1])[*:2]

Columns and labels:
[1] = Stability in human serum assessed as parent compound remaining incubated at 24 hrs by RP-HPLC analysis; assay type: ADME, cell-free; conditions: human serum, read-out: Stability
[2] = molecular target: Neuronal acetylcholine receptor; alpha9/alpha10 (Homo sapiens) (UniProt Q9UGM1+Q9GZZ6); assay: Antagonist activity at human alpha9alpha10 nAChR expressed in acetylcholine-induced Xenopus laevis oocytes assessed as inhibition of acetylcholine-induced current at 10 nM at -80 mV holding potential incubated for 5 mins by two electrode voltage-clamp assay relative to control; assay type: cell-based; conditions: Oocyte

SMILES	remaining at 24 h [1]	inhibition [2]	inhibition ([2]; filed as antagonist)
CC[C@H](C)[C@@H]1NC(=O)[C@H](CC(=O)O)NC(=O)[C@@H]2CCCN2C(=O)[C@H](CC(N)=O)NC(=O)[C@H](CC(N)=O)NC(=O)[C@H](C(C)C)NC(=O)[C@H](CO)NC(=O)[C@@H]2CSCSC[C@@H]3NC(=O)CNC(=O)[C@@H](N)CCC(=O)NC[C@@H](C(N)=O)NC(=O)[C@H](CSSC[C@H](NC3=O)C(=O)N[C@@H](CN)C(=O)N[C@@H](Cc3cnc[nH]3)C(=O)N3CCC[C@H]3C(=O)N[C@@H](C)C(=O)N2)NC1=O (H-EGCC[Dap]HPACSVNNPDIC[Dap]-NH2; lactam 1-18; linker 3-9 via CH2; disulfide 4-17)	57.3%		
CC[C@H](C)[C@@H]1NC(=O)[C@H](CC(=O)O)NC(=O)[C@@H]2CCCN2C(=O)[C@H](CC(N)=O)NC(=O)[C@H](CC(N)=O)NC(=O)[C@H](C(C)C)NC(=O)[C@H](CO)NC(=O)[C@@H]2CSSC[C@H](NC(=O)CN)C(=O)N[C@@H](CCn3cc(nn3)C[C@@H](C(N)=O)NC1=O)C(=O)N[C@@H](CN)C(=O)N[C@@H](Cc1cnc[nH]1)C(=O)N1CCC[C@H]1C(=O)N[C@@H](C)C(=O)N2 (H-GC[Aha][Dap]HPACSVNNPDI[Pra]-NH2; disulfide 2-8; triazole 3-16)		< 15%	
CC[C@H](C)[C@@H]1NC(=O)[C@H](CC(=O)O)NC(=O)[C@@H]2CCCN2C(=O)[C@H](CC(N)=O)NC(=O)[C@H](CC(N)=O)NC(=O)[C@H](C(C)C)NC(=O)[C@H](CO)NC(=O)[C@@H]2CSSC[C@H](NC(=O)CN)C(=O)N[C@@H](Cc3cn(nn3)CC[C@@H](C(N)=O)NC1=O)C(=O)N[C@@H](CN)C(=O)N[C@@H](Cc1cnc[nH]1)C(=O)N1CCC[C@H]1C(=O)N[C@@H](C)C(=O)N2 (H-GC[Pra][Dap]HPACSVNNPDI[Aha]-NH2; disulfide 2-8; triazole 3-16)		< 15%	
CC[C@H](C)[C@@H]1NC(=O)[C@H](CC(=O)O)NC(=O)[C@@H]2CCCN2C(=O)[C@H](CC(N)=O)NC(=O)[C@H](CC(N)=O)NC(=O)[C@H](C(C)C)NC(=O)[C@H](CO)NC(=O)[C@@H]2CSSC[C@@H]3NC(=O)CNC(=O)CNC(=O)[C@H](C)NC(=O)CNC(=O)[C@H](C)NC(=O)[C@H](C)NC(=O)CNC(=O)CNC(=O)[C@H](CSSC[C@H](NC3=O)C(=O)N[C@@H](CN)C(=O)N[C@@H](Cc3cnc[nH]3)C(=O)N3CCC[C@H]3C(=O)N[C@@H](C)C(=O)N2)NC1=O (HELM PEPTIDE1{A.A.G.A.G.G.C.C.[NC[C@H](N[*:1])C(=O)[*:2]].H.P.A.C.S.V.N.N.P.D.I.C.G.G}$PEPTIDE1,PEPTIDE1,7:R3-13:R3|PEPTIDE1,PEPTIDE1,8:R3-21:R3|PEPTIDE1,PEPTIDE1,1:R1-23:R2$$$V2.0)	61.7%		> 85%
CC[C@H](C)[C@@H]1NC(=O)[C@H](CC(=O)O)NC(=O)[C@@H]2CCCN2C(=O)[C@H](CC(N)=O)NC(=O)[C@H](CC(N)=O)NC(=O)[C@H](C(C)C)NC(=O)[C@H](CO)NC(=O)[C@@H]2CSSC[C@@H]3NC(=O)CNC(=O)CNC(=O)[C@H](C)NC(=O)[C@H](C)NC(=O)CNC(=O)CNC(=O)[C@H](CSSC[C@H](NC3=O)C(=O)N[C@@H](CN)C(=O)N[C@@H](Cc3cnc[nH]3)C(=O)N3CCC[C@H]3C(=O)N[C@@H](C)C(=O)N2)NC1=O (HELM PEPTIDE1{A.A.G.G.C.C.[NC[C@H](N[*:1])C(=O)[*:2]].H.P.A.C.S.V.N.N.P.D.I.C.G.G}$PEPTIDE1,PEPTIDE1,5:R3-11:R3|PEPTIDE1,PEPTIDE1,6:R3-19:R3|PEPTIDE1,PEPTIDE1,1:R1-21:R2$$$V2.0)	< 40%	20%	
CC[C@H](C)[C@@H]1NC(=O)[C@H](CC(=O)O)NC(=O)[C@@H]2CCCN2C(=O)[C@H](CC(N)=O)NC(=O)[C@H](CC(N)=O)NC(=O)[C@H](C(C)C)NC(=O)[C@H](CO)NC(=O)[C@@H]2CSSC[C@@H]3NC(=O)CNC(=O)CNC(=O)[C@H](C)NC(=O)[C@H](C)NC(=O)CNC(=O)[C@H](CSSC[C@H](NC3=O)C(=O)N[C@@H](CN)C(=O)N[C@@H](Cc3cnc[nH]3)C(=O)N3CCC[C@H]3C(=O)N[C@@H](C)C(=O)N2)NC1=O (HELM PEPTIDE1{A.A.G.G.C.C.[NC[C@H](N[*:1])C(=O)[*:2]].H.P.A.C.S.V.N.N.P.D.I.C.G}$PEPTIDE1,PEPTIDE1,5:R3-11:R3|PEPTIDE1,PEPTIDE1,6:R3-19:R3|PEPTIDE1,PEPTIDE1,1:R1-20:R2$$$V2.0)	< 40%	< 10%	
CC[C@H](C)[C@@H]1NC(=O)[C@H](CC(=O)O)NC(=O)[C@@H]2CCCN2C(=O)[C@H](CC(N)=O)NC(=O)[C@H](CC(N)=O)NC(=O)[C@H](C(C)C)NC(=O)[C@H](CO)NC(=O)[C@@H]2CSSC[C@@H]3NC(=O)CNC(=O)CNC(=O)CNC(=O)[C@H](C)NC(=O)[C@H](C)NC(=O)CNC(=O)CNC(=O)[C@H](CSSC[C@H](NC3=O)C(=O)N[C@@H](CN)C(=O)N[C@@H](Cc3cnc[nH]3)C(=O)N3CCC[C@H]3C(=O)N[C@@H](C)C(=O)N2)NC1=O (HELM PEPTIDE1{A.A.G.G.G.C.C.[NC[C@H](N[*:1])C(=O)[*:2]].H.P.A.C.S.V.N.N.P.D.I.C.G.G}$PEPTIDE1,PEPTIDE1,6:R3-12:R3|PEPTIDE1,PEPTIDE1,7:R3-20:R3|PEPTIDE1,PEPTIDE1,1:R1-22:R2$$$V2.0)	43.3%		> 85%
CC[C@H](C)[C@@H]1NC(=O)[C@H](CC(=O)O)NC(=O)[C@@H]2CCCN2C(=O)[C@H](CC(N)=O)NC(=O)[C@H](CC(N)=O)NC(=O)[C@H](C(C)C)NC(=O)[C@H](CO)NC(=O)[C@@H]2CSCSC[C@@H]3NC(=O)CNC(=O)[C@@H](N)CCC(=O)NCC[C@@H](C(N)=O)NC(=O)[C@H](CSSC[C@H](NC3=O)C(=O)N[C@@H](CN)C(=O)N[C@@H](Cc3cnc[nH]3)C(=O)N3CCC[C@H]3C(=O)N[C@@H](C)C(=O)N2)NC1=O (HELM PEPTIDE1{E.G.C.C.[NC[C@H](N[*:1])C(=O)[*:2]].H.P.A.C.S.V.N.N.P.D.I.C.[Dab].[am]}|CHEM1{[C([*:1])[*:2]]}$PEPTIDE1,PEPTIDE1,1:R3-18:R3|PEPTIDE1,CHEM1,3:R3-1:R1|PEPTIDE1,CHEM1,9:R3-1:R2|PEPTIDE1,PEPTIDE1,4:R3-17:R3$$$V2.0)		< 5%	
CC[C@H](C)[C@@H]1NC(=O)[C@H](CC(=O)O)NC(=O)[C@@H]2CCCN2C(=O)[C@H](CC(N)=O)NC(=O)[C@H](CC(N)=O)NC(=O)[C@H](C(C)C)NC(=O)[C@H](CO)NC(=O)[C@@H]2CSSC[C@H](NC(=O)CN)C(=O)N[C@@H](CCC(=O)NCC[C@@H](C(N)=O)NC1=O)C(=O)N[C@@H](CN)C(=O)N[C@@H](Cc1cnc[nH]1)C(=O)N1CCC[C@H]1C(=O)N[C@@H](C)C(=O)N2 (HELM PEPTIDE1{G.C.E.[NC[C@H](N[*:1])C(=O)[*:2]].H.P.A.C.S.V.N.N.P.D.I.[Dab].[am]}$PEPTIDE1,PEPTIDE1,2:R3-8:R3|PEPTIDE1,PEPTIDE1,3:R3-16:R3$$$V2.0)		< 5%	
CC[C@H](C)[C@@H]1NC(=O)[C@H](CC(=O)O)NC(=O)[C@@H]2CCCN2C(=O)[C@H](CC(N)=O)NC(=O)[C@H](CC(N)=O)NC(=O)[C@H](C(C)C)NC(=O)[C@H](CO)NC(=O)[C@@H]2CSSC[C@H](NC(=O)CN)C(=O)N[C@@H](CCC(=O)NC[C@@H](C(N)=O)NC1=O)C(=O)N[C@@H](CN)C(=O)N[C@@H](Cc1cnc[nH]1)C(=O)N1CCC[C@H]1C(=O)N[C@@H](C)C(=O)N2 (HELM PEPTIDE1{G.C.E.[NC[C@H](N[*:1])C(=O)[*:2]].H.P.A.C.S.V.N.N.P.D.I.[O=C([C@H](CN[*:3])N[*:1])[*:2]].[am]}$PEPTIDE1,PEPTIDE1,2:R3-8:R3|PEPTIDE1,PEPTIDE1,3:R3-16:R3$$$V2.0)	57.3%		
CC[C@H](C)[C@@H]1NC(=O)[C@H](CC(=O)O)NC(=O)[C@@H]2CCCN2C(=O)[C@H](CC(N)=O)NC(=O)[C@H](CC(N)=O)NC(=O)[C@H](C(C)C)NC(=O)[C@H](CO)NC(=O)[C@@H]2CSSC[C@H](NC(=O)CN)C(=O)N[C@@H](CCNC(=O)C[C@@H](C(N)=O)NC1=O)C(=O)N[C@@H](CN)C(=O)N[C@@H](Cc1cnc[nH]1)C(=O)N1CCC[C@H]1C(=O)N[C@@H](C)C(=O)N2 (HELM PEPTIDE1{G.C.[Dab].[NC[C@H](N[*:1])C(=O)[*:2]].H.P.A.C.S.V.N.N.P.D.I.D.[am]}$PEPTIDE1,PEPTIDE1,2:R3-8:R3|PEPTIDE1,PEPTIDE1,3:R3-16:R3$$$V2.0)		< 5%	
CC[C@H](C)[C@@H]1NC(=O)[C@H](CC(=O)O)NC(=O)[C@@H]2CCCN2C(=O)[C@H](CC(N)=O)NC(=O)[C@H](CC(N)=O)NC(=O)[C@H](C(C)C)NC(=O)[C@H](CO)NC(=O)[C@@H]2CSSC[C@@H]3NC(=O)CNC(=O)[C@@H](N)CCNC(=O)C[C@@H](C(N)=O)NC(=O)[C@H](CSSC[C@H](NC3=O)C(=O)N[C@@H](CN)C(=O)N[C@@H](Cc3cnc[nH]3)C(=O)N3CCC[C@H]3C(=O)N[C@@H](C)C(=O)N2)NC1=O (HELM PEPTIDE1{[Dab].G.C.C.[NC[C@H](N[*:1])C(=O)[*:2]].H.P.A.C.S.V.N.N.P.D.I.C.D.[am]}$PEPTIDE1,PEPTIDE1,1:R3-18:R3|PEPTIDE1,PEPTIDE1,3:R3-9:R3|PEPTIDE1,PEPTIDE1,4:R3-17:R3$$$V2.0)		< 5%	
CC[C@H](C)[C@@H]1NC(=O)[C@H](CC(=O)O)NC(=O)[C@@H]2CCCN2C(=O)[C@H](CC(N)=O)NC(=O)[C@H](CC(N)=O)NC(=O)[C@H](C(C)C)NC(=O)[C@H](CO)NC(=O)[C@@H]2CSSC[C@@H]3NC(=O)CNC(=O)[C@@H](N)CCNC(=O)CC[C@@H](C(N)=O)NC(=O)[C@H](CSSC[C@H](NC3=O)C(=O)N[C@@H](CN)C(=O)N[C@@H](Cc3cnc[nH]3)C(=O)N3CCC[C@H]3C(=O)N[C@@H](C)C(=O)N2)NC1=O (HELM PEPTIDE1{[Dab].G.C.C.[NC[C@H](N[*:1])C(=O)[*:2]].H.P.A.C.S.V.N.N.P.D.I.C.E.[am]}$PEPTIDE1,PEPTIDE1,1:R3-18:R3|PEPTIDE1,PEPTIDE1,3:R3-9:R3|PEPTIDE1,PEPTIDE1,4:R3-17:R3$$$V2.0)		< 5%	
